Experimental data as given in ChEMBL document CHEMBL1201862, “PubChem BioAssay data set” (2004).
The source made the active and inactive calls.

What was measured:
[1] = molecular target: T1, Ubiquitin-conjugating enzyme E2 N (Homo sapiens, UniProt P61088); assay type: functional;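 further: Dose-response confirmation in a TR-FRET assay detecting UBC13-driven polyubiquitin chain formation, inhibition measured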
T1 sequence (P61088 whole entry): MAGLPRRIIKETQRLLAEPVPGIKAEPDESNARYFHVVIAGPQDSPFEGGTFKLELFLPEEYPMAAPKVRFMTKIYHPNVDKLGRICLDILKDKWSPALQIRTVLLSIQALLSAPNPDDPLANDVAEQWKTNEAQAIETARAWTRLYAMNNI

[2] = molecular target: T2, Acyl-homoserine lactone acylase PvdQ (Pseudomonas aeruginosa (strain LESB58), UniProt Q9I194); assay: PvdQ acylase enzyme activity blockers – biochemical, fluorescence, plate reader and imaging, cherry-picks, dose response (AID 493231)
T2 sequence (Q9I194 whole entry): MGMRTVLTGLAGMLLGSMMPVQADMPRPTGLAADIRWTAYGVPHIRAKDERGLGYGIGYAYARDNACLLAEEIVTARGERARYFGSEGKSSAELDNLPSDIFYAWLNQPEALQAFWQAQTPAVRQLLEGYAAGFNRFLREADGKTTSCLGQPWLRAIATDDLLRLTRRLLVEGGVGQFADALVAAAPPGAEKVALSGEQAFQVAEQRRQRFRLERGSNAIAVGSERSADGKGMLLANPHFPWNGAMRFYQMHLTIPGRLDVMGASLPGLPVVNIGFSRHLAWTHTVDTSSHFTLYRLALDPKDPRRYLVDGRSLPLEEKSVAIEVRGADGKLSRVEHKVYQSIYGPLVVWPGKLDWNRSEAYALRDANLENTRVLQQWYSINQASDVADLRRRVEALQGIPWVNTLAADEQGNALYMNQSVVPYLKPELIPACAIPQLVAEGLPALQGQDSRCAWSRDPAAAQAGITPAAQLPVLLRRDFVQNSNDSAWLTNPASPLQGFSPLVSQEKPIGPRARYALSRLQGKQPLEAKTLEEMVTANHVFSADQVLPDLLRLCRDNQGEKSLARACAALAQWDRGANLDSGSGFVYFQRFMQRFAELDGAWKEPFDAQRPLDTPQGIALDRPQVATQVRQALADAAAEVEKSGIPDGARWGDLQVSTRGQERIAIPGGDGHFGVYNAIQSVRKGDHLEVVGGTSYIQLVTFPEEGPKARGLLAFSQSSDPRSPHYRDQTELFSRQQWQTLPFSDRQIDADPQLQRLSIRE

[3] = luciferase reporter signal reduction – luminescence, H4-C neuroglioblastoma cells, dose response (AID 2458); assay type: functional, cell-based;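 further: H4 neuroglioblastoma cells stably carrying a luciferase reporter gene fusion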
[4] = alpha-synuclein stem-loop luciferase translation blockers – H4 neuroglioma cells, luminescence, confirmation (AID 1988); assay type: functional, cell-based
cells = assay type: functional, cell-based
BJ [5] = assay: cells; assay type: functional, cell-based; conditions: Homo sapiens
[6] = alpha-synuclein stem-loop translation blockers – luminescence, H4 neuroglioblastoma cells, dose confirmation, confirmation (AID 2454); assay type: functional, cell-based;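 further: H4 neuroglioblastoma cells carrying an alpha-synuclein 5'UTR luciferase reporter; potency for inhibition of the luciferase signal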
[7] = HEK-293T viability loss after treatment – luminescence, T-cell screen hits, cytotoxicity control for TCR NF-kB inhibitor project, dose response (AID 489026); assay type: functional, cell-based;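 further: cells exposed to compound about 14 hours before the viability readout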
BJ [8] = assay: BJ-TERT fibroblast viability loss – cell-based, RAS-independent, luminescence, dose response (AID 1933); assay type: functional; conditions: Homo sapiens
[9] = DRD fibroblast viability loss – cell-based, non-viral oncogenic, luminescence, dose response (AID 1934); assay type: functional; conditions: Homo sapiens
CAAX prenyl protease 2 = molecular target: T3, CAAX prenyl protease 2 (Homo sapiens, UniProt Q9Y256); assay: inhibition of Ras-converting CAAX protease Rce1 – biochemical, yeast membranes, quenched-peptide fluorescence, cherry-pick, dose response (AID 588849)
T3 sequence (Q9Y256 whole entry): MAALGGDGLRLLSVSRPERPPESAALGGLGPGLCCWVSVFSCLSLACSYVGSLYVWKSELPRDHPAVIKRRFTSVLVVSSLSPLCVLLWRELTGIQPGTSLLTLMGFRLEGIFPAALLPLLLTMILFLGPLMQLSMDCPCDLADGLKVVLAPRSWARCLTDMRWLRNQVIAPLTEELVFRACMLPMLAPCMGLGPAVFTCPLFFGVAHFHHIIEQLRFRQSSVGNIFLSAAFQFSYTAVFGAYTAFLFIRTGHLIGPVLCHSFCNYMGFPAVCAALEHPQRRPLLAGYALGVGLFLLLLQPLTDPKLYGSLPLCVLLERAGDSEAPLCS

[10] = luciferase reporter signal suppression in cells – H4 neuroglioma cells, luminescence, dose response (AID 1990); assay type: functional, cell-based
Leucine aminopeptidase = molecular target: T4, Leucine aminopeptidase (Plasmodium falciparum 3D7, UniProt Q8IL11); assay: P. falciparum M17LAP inhibitors, primary screen, biochemical, fluorogenic H-Leu-NHMec substrate, 1536-well (AID 1619); assay type: functional
T4 sequence (Q8IL11 whole entry): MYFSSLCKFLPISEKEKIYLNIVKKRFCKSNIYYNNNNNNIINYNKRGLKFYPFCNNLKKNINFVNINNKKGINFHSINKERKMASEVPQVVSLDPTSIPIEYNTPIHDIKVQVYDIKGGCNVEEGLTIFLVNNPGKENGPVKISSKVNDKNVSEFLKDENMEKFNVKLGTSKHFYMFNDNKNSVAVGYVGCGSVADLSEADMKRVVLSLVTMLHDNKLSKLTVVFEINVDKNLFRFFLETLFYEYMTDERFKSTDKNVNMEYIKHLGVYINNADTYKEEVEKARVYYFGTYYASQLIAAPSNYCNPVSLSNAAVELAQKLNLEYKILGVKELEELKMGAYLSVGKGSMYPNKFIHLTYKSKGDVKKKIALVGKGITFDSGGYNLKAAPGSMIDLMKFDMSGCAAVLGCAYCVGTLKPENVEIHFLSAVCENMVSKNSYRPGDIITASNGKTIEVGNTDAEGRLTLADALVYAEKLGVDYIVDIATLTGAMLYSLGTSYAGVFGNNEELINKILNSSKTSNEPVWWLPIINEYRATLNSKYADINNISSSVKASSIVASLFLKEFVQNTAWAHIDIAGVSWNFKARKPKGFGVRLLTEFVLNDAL

Aspartyl aminopeptidase = molecular target: T5, Aspartyl aminopeptidase (Plasmodium falciparum 3D7, UniProt Q8I2J3); assay: Counterscreen for inhibitors of M1 and M17 aminopeptidases: QFRET-based biochemical high throughput dose response assay for inhibitors of the Plasmodium falciparum M18 Aspartyl Aminopeptidase (PFM18AAP). [Related PubChem assays: 1619 (Screening assay (M17LAP inhibitors).), 1445 (Screening assay (M1AAP inhibitors).)]
T5 sequence (Q8I2J3 whole entry): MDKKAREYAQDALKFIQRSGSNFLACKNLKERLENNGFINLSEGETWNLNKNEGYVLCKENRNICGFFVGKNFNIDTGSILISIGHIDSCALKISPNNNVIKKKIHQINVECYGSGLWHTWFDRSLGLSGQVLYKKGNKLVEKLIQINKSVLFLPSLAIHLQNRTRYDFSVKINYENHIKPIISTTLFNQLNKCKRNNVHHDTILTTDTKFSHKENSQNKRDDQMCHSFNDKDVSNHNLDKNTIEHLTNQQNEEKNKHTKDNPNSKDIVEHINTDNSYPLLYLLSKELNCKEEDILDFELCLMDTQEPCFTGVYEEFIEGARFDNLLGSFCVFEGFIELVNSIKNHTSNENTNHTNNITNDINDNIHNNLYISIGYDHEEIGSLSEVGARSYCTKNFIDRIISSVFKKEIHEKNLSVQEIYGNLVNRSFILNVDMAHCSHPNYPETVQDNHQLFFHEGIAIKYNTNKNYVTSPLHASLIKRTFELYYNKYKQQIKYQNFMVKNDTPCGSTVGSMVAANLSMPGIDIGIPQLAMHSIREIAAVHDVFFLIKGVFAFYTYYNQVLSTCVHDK

Procathepsin L = Procathepsin L (Homo sapiens, UniProt P07711); assay: CTSL1 protease inhibition – biochemical, QFRET, 1536-well, counter-screen for M1/M17 aminopeptidase inhibitor project, dose response (AID 2214)
[11] = A cytotoxicity screen of small molecule inhibitors of the PhoP region in Salmonella typhi identified in the primary screen. [Related pubchem assays: 1850, 1864, 1985 ]; assay type: functional
[12] = molecular target: Eukaryotic translation initiation factor 4E (Mus musculus, UniProt P63073); assay: blockers of eIF4G binding by eIF4E – biochemical, TR-FRET, dose response (AID 855); assay type: functional;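 further: potency for disrupting eIF4E binding to eIF4GI seen as loss of FRET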
Sequence of Eukaryotic translation initiation factor 4E (P63073 whole entry): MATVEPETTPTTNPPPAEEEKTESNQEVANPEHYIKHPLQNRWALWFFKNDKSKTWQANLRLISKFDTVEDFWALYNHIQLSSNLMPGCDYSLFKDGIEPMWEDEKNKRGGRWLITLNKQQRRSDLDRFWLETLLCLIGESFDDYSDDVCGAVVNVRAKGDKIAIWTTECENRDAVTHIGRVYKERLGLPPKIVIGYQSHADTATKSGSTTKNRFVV

Sequence of Procathepsin L (P07711 whole entry): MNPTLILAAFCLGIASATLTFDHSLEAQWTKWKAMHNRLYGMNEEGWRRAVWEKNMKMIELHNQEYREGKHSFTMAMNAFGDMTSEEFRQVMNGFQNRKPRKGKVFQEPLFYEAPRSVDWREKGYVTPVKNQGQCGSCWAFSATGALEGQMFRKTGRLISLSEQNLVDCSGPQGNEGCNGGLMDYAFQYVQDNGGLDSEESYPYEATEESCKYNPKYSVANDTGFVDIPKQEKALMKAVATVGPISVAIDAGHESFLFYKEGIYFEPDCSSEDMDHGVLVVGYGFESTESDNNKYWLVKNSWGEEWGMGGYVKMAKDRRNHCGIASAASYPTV

COc1cccc(Cn2cnc3c([N+](=O)[O-])c(C)c(C)cc32)c1
IC50 [1]: > 20000 nM (inactive)

Cc1cc(NC(=O)c2cc([N+](=O)[O-])ccc2Cl)no1
AC50 [2]: 3710 nM (active)

COc1ccccc1-c1nnc2sc(-c3ccc(N(C)C)cc3)nn12
EC50 [3]: 143 nM (active) | EC50 [4]: < 100 nM (active) | EC50 (cells): 290 nM (active) | EC50 (BJ [5]): 637 nM (active) | EC50 [6]: 179 nM (active) | IC50 [7]: > 80000 nM (inactive) | EC50 (BJ [8]): 179 nM (active) | EC50 [9]: 202 nM (active) | AC50 (CAAX prenyl protease 2): 1020 nM (active) | EC50 [10]: < 100 nM (active)

CCOc1ccc(C(=O)Nc2cccc(C)n2)cc1
AC50 [2]: 19300 nM (active)

COc1ccc(NC(=O)CSc2nc(O)cc(=O)n2C)cc1
IC50 (Leucine aminopeptidase): 2590 nM (active) | IC50 (Aspartyl aminopeptidase): > 73500 nM (not active) | IC50 (Procathepsin L): > 59600 nM (not active)

CCOc1ccc(C2CC(=O)NC(SCC(=O)OC)=C2C#N)cc1 (centres undefined)
EC50 [11]: > 50000 nM (active)

O=C(CSc1nnc(-c2ccccc2)n1-c1ccc(Cl)cc1)NC1CCS(=O)(=O)C1 (centres undefined)
EC50 [11]: > 50000 nM (active)

O=C1OC(c2ccccc2)=C/C1=C\c1ccc(-c2ccc([N+](=O)[O-])cc2)o1
IC50 [12]: 50000 nM (inactive)
